This note sets out measurements from ChEMBL document CHEMBL5257061, “Structural Study of Potent Triazole-Based Inhibitors of Staphylococcus aureus Biotin Protein Ligase” (ACS Med Chem Lett, 2023).

Values after ≈ are worked out from the molar mass of the structure shown.

Assay [1] in a line: Inhibition of recombinant Staphylococcus aureus C-terminal hexahistidine tagged Biotin protein ligase expressed in Escherichia coli BL21 (DE3) assessed as inhibition constant incubated for 30 mins by [3H]-Biotin incorporation based radioactivity based assay.
A short description of assay [2]: Inhibition of recombinant Staphylococcus aureus C-terminal hexahistidine tagged Biotin protein ligase expressed in Escherichia coli BL21 (DE3) assessed as inhibition constant incubated for 10 mins in presence of ATP by [3H]-Biotin incorporation based liquid scintillation counting analysis.
The nature of assay [3]: Inhibition of Staphylococcus aureus Biotin protein ligase assessed as inhibition constant by biotinylation assay.
In assay [4] the test system is Staphylococcus aureus. Briefly: Antibacterial activity against Staphylococcus aureus ATCC 49775 assessed as inhibition of bacterial growth incubated for 16 to 20 hrs by CLSI protocol based two-fold serial dilution method. It is filed as functional. To be noted: time 16-20 hrs.
Assay [5] can be described thus: Inhibition of Staphylococcus aureus Biotin protein ligase assessed as inhibition constant.
The subject of assay [6] is Staphylococcus aureus. Briefly: Antibacterial activity against Staphylococcus aureus ATCC 49775 assessed as inhibition of bacterial growth. It is filed as functional.

Turning to `Nc1ncnc2c1ncn2[C@@H]1O[C@H](COP(=O)(O)OCCCCC[C@@H]2SC[C@@H]3NC(=O)N[C@@H]32)[C@@H](O)[C@H]1O`, the Ki in assay [1] amounted to 0.03 µM.
On to `Cc1ccc2oc(=O)n(CCCCn3nnc(CCCCC[C@@H]4SC[C@@H]5NC(=O)N[C@@H]54)c3F)c2c1`, for which the Ki in assay [2] stood at 0.42 µM.
In the case of `NC(=O)CCCCNC(=O)c1ccc(C(c2cccc(F)c2)n2cc(CCCCC[C@@H]3SC[C@@H]4NC(=O)N[C@@H]43)nn2)cc1` (some centres not stated), in assay [3], the Ki amounted to 0.246 µM. In the assay on Staphylococcus aureus [4], the MIC was above 64 mg/L.
For `NC(=O)CCCNC(=O)c1ccc(C(c2cccc(F)c2)n2cc(CCCCC[C@@H]3SC[C@@H]4NC(=O)N[C@@H]43)nn2)cc1` (some centres not stated), in assay [3], the Ki came to 0.01 µM. Besides, the MIC in the assay with Staphylococcus aureus [4] stood at 4 mg/L (≈ 6.74 µM).
For `Nc1ccc(CNC(=O)c2ccc(C(c3cccc(F)c3)n3cc(CCCCC[C@@H]4SC[C@@H]5NC(=O)N[C@@H]54)nn3)cc2)cc1` (some centres not stated), the inhibitory constant (Ki) in assay [3] came to 0.063 µM. Moreover, the MIC in the assay on Staphylococcus aureus [4] is above 64 mg/L.
Take `O=C1N[C@H]2[C@H](CS[C@H]2CCCCCc2cn(C(c3ccc(C(=O)NCc4ccccc4)cc3)c3cccc(F)c3)nn2)N1` (some centres not stated): in assay [3], the inhibition constant Ki was 0.867 µM. Also, in the assay on Staphylococcus aureus [4], the MIC is above 64 mg/L.
The matching figures for `NCCCNC(=O)c1ccc(C(c2cccc(F)c2)n2cc(CCCCC[C@@H]3SC[C@@H]4NC(=O)N[C@@H]43)nn2)cc1` (some centres not stated): 0.03 µM and 8 mg/L (≈ 14.1 µM).
Take `Cc1ccc2oc(=O)n(CCCCn3cc(CCCCC[C@@H]4SC[C@@H]5NC(=O)N[C@@H]54)nn3)c2c1`: the Ki in assay [2] came out at 0.23 µM.
Consider `Nc1cc(CNC(=O)c2ccc(C(c3cccc(F)c3)n3nnc(CCCCC[C@@H]4SC[C@@H]5NC(=O)N[C@@H]54)c3F)cc2)ccn1` (some centres not stated), for which the Ki in assay [3] came to 0.131 µM. In the assay on Staphylococcus aureus [4], the MIC is above 64 mg/L.
The corresponding values for `NCCCNC(=O)c1ccc(C(c2cccc(F)c2)n2nnc(CCCCC[C@@H]3SC[C@@H]4NC(=O)N[C@@H]43)c2F)cc1` (some centres not stated) are 0.268 µM and above 64 mg/L.
Regarding `O=C1N[C@H]2[C@H](CS[C@H]2CCCCCc2cn(Cc3ccc(C(=O)O)cc3)nn2)N1`, in assay [2], the Ki amounted to 0.28 µM.
Regarding `O=C1N[C@H]2[C@H](CS[C@H]2CCCCCc2cn(C(c3ccc(C(=O)NCCc4c[nH]cn4)cc3)c3cccc(F)c3)nn2)N1` (some centres not stated), the Ki in assay [5] is 0.00601 µM. For the same compound, the MIC in the assay with Staphylococcus aureus [6] is 1 mg/L (≈ 1.66 µM).
On to `O=C1N[C@H]2[C@H](CS[C@H]2CCCCCc2cn(C(c3ccc(C(=O)NCc4cccnc4)cc3)c3cccc(F)c3)nn2)N1` (some centres not stated), for which the Ki in assay [3] was determined as 0.237 µM. For the same compound, the MIC in the assay with Staphylococcus aureus [4] was above 64 mg/L.
With `O=C1N[C@H]2[C@H](CS[C@H]2CCCCCc2cn(C(c3ccc(C(=O)NCCCc4c[nH]cn4)cc3)c3cccc(F)c3)nn2)N1` (some centres not stated), in assay [3], the inhibitory constant (Ki) amounted to 0.181 µM. The MIC with Staphylococcus aureus [4] came to 32 mg/L (≈ 51.9 µM).
In the case of `Nc1cc(CNC(=O)c2ccc(C(c3cccc(F)c3)n3cc(CCCCC[C@@H]4SC[C@@H]5NC(=O)N[C@@H]54)nn3)cc2)ccn1` (some centres not stated), in assay [5], the Ki turned out to be 0.00843 µM. Besides, in the assay on Staphylococcus aureus [6], the MIC is 8 mg/L (≈ 13 µM).
Take `O=C1N[C@H]2[C@H](CS[C@H]2CCCCCc2cn(Cc3cccc(F)c3)nn2)N1`: in assay [2], the inhibition constant Ki was found to be 0.67 µM.
Consider `O=C1N[C@H]2[C@H](CS[C@H]2CCCCCc2cn(C(c3ccc(C(=O)NCc4ccccn4)cc3)c3cccc(F)c3)nn2)N1` (some centres not stated), for which the Ki in assay [3] amounted to 0.544 µM. In addition, in the assay on Staphylococcus aureus [4], the MIC is above 64 mg/L.
The corresponding values for `O=C1N[C@H]2[C@H](CS[C@H]2CCCCCc2cn(C(c3ccc(C(=O)NCc4ccncc4)cc3)c3cccc(F)c3)nn2)N1` (some centres not stated) are 0.13 µM and above 64 mg/L.
For `Nc1ncnc2c1ncn2[C@@H]1O[C@H](Cn2cc(CCCCC[C@@H]3SC[C@@H]4NC(=O)N[C@@H]43)nn2)[C@@H](O)[C@H]1O`, the Ki in assay [1] is 1.17 µM.

The Ki is the equilibrium dissociation constant of an inhibitor or competing ligand from its target. For orientation: MIC means the lowest concentration that inhibits growth of the organism.
